The source made the active and inactive calls. The calls are words filed in the database; no cut-off is given here.
Legend:
Nucleic Acid [1] = assay: Induction of DNA cleavage in Escherichia coli pBR322 at 10 uM in pH 8.0 phosphate buffer measured after of UV irradiation; format: nucleic-acid assay
Nucleic Acid [2] = assay: Induction of DNA cleavage in Escherichia coli pBR322 at 5 uM in pH 6.0 phosphate buffer measured after of UV irradiation; format: nucleic-acid assay
A-375 [3] = assay: Phototoxicity in human A375 cells incubated for 72 hrs exposed to UV light for 10 mins by MTT assay; format: functional
Nucleic Acid [4] = assay: Induction of DNA cleavage in Escherichia coli pBR322 at 5 uM in pH 7.0 phosphate buffer measured after of UV irradiation; format: nucleic-acid assay
Nucleic Acid [5] = assay: Induction of DNA damage in Escherichia coli pBR322 at 5 uM in pH 6.0 phosphate buffer measured after of UV irradiation; format: nucleic-acid assay
Nucleic Acid [6] = assay: Induction of DNA cleavage in Escherichia coli pBR322 at 10 uM in pH 7.0 phosphate buffer measured after of UV irradiation; format: nucleic-acid assay
A-375 [7] = assay: Toxicity in human A375 cells at <10 uM under dark condition incubated for 72 hrs by MTT assay; format: cell-based; conditions: a-375, 72 h
A-375 [8] = assay: Drug uptake in human A375 cells at 30 uM incubated for 30 mins by differential interference contrast microscopy; format: ADME, cell-based; conditions: a-375, 0.5 h
A-375 [9] = assay: Drug uptake in human A375 cells at 30 uM incubated for 30 mins by fluorescence microscopy; format: ADME, cell-based; conditions: a-375, 0.5 h
Nucleic Acid [10] = assay: Induction of DNA cleavage in Escherichia coli pBR322 assessed as form3/form2 ratio at 15 uM at pH 6 to 9 after 10 mins of UV irradiation; format: nucleic-acid assay
Nucleic Acid [11] = assay: Induction of photochemical DNA cleavage in Escherichia coli pBR322 assessed as disappearance of supercoiled DNA at 15 uM in pH 7.0 phosphate buffer after 10 mins of UV irradiation; format: nucleic-acid assay
Nucleic Acid [12] = assay: Induction of DNA cleavage in Escherichia coli pBR322 at 15 uM in pH 6.0 phosphate buffer measured after of UV irradiation; format: nucleic-acid assay
Nucleic Acid [13] = assay: Induction of photochemical DNA cleavage in Escherichia coli pBR322 assessed as supercoiled DNA level at 15 uM in pH 6.0 phosphate buffer measured after 30 secs of UV irradiation; format: nucleic-acid assay
Nucleic Acid [14] = assay: Induction of photochemical DNA cleavage in Escherichia coli pBR322 assessed as disappearance of supercoiled DNA at 15 uM in pH 6.0 phosphate buffer after 10 mins of UV irradiation; format: nucleic-acid assay
Nucleic Acid [15] = assay: Induction of photochemical DNA cleavage in Escherichia coli pBR322 assessed as supercoiled DNA level at 10 uM in pH 6.0 phosphate buffer measured after UV irradiation; format: nucleic-acid assay
Nucleic Acid [16] = assay: Induction of photochemical DNA cleavage in Escherichia coli pBR322 assessed as disappearance of supercoiled DNA at 15 uM in pH 8.0 phosphate buffer after 10 mins of UV irradiation; format: nucleic-acid assay
Nucleic Acid [17] = assay: Induction of DNA cleavage in Escherichia coli pBR322 at 10 uM in pH 6.0 phosphate buffer measured after of UV irradiation; format: nucleic-acid assay
Nucleic Acid [18] = assay: Induction of DNA cleavage in Escherichia coli pBR322 assessed as form3/form2 ratio after UV irradiation; format: nucleic-acid assay

Structure (SMILES) | Activity (Nucleic Acid [1]) | Activity (Nucleic Acid [2]) [%] | CC50 (A-375 [3]) | Activity (Nucleic Acid [4]) | Activity (Nucleic Acid [5]) [%] | Activity (Nucleic Acid [6]) | Activity (A-375 [7]) | Drug uptake (A-375 [8]) | Drug uptake (A-375 [9]) | Ratio (Nucleic Acid [10]) | Activity (Nucleic Acid [11]) | Activity (Nucleic Acid [12]) [%] | Activity (Nucleic Acid [13]) | Activity (Nucleic Acid [14]) | Activity (Nucleic Acid [15]) | Activity (Nucleic Acid [16]) | Activity (Nucleic Acid [17]) [%] | Activity (Nucleic Acid [18])
NCCCC[C@H](NC(=O)[C@@H](N)CCCCN)C(=O)Nc1ccc(C#Cc2c(F)c(F)nc(F)c2F)c(C#Cc2c(F)c(F)nc(F)c2F)c1.O=C(O)C(F)(F)F | Active | 13 | Active | inactive | 77 | Active | Non-toxic | Active | Active | – | – | – | – | – | – | – | – | –
NCCCC[C@H](NC(=O)[C@@H](N)CCCCN)C(=O)Nc1ccc(C#Cc2c(F)c(F)nc(F)c2F)cc1.O=C(O)C(F)(F)F | – | 32 | Active | – | – | > 61% | Non-toxic | Active | Active | 1 | Active | 155 | Active | Active | inactive | Active | 136 | –
CCN[C@H]1CO[C@@H](O[C@H]2[C@H](O[C@H]3C#C/C=C\C#C[C@]4(O)CC(=O)C(NC(=O)OC)=C3/C4=C\CSSSC)O[C@H](C)[C@@H](NO[C@H]3C[C@H](O)[C@H](SC(=O)c4c(C)c(I)c(O[C@@H]5O[C@@H](C)[C@H](O)[C@@H](OC)[C@H]5O)c(OC)c4OC)[C@@H](C)O3)[C@@H]2O)C[C@@H]1OC | – | – | – | – | – | – | – | – | – | – | – | – | – | – | – | – | – | Active
NCCCC[C@H](N)C(=O)NCCCC[C@H](N)C(=O)Nc1ccc(C#Cc2c(F)c(F)nc(F)c2F)c(C#Cc2c(F)c(F)nc(F)c2F)c1.O=C(O)C(F)(F)F | Active | 17 | Active | inactive | 92 | Active | Non-toxic | Active | Active | – | – | – | – | – | – | – | – | –

Source: ChEMBL document CHEMBL2157896, “Engineering pH-gated transitions for selective and efficient double-strand DNA photocleavage in hypoxic tumors” (J Med Chem, 2011)
